According to article PMC7997453 (Pharmaceuticals, 2021):
Read-outs that look alike come from different tables or passages of the source.

Columns and labels:
[1] = tissue to plasma partition coefficients; settings: In-house data
From the text: All PBPK simulations were constructed using the population-based ADME(absorption, distribution, metabolism, and excretion) simulator (version 13.1.1, Simcyp® Ltd., Certara, Sheffield, UK).

CYP3A4 [2] = biological target: T1, CYP3A4 (Homo sapiens, UniProt P08684); experiment: Time-dependent inhibition (TDI) assay, testosterone-6β-hydroxylation, CYP3A5*3/*3 HLM; assay type: biochemical
Procedure: (§1) Testosterone-6β-hydroxylation was used to measure the activity of CYP3A4 and CYP3A5. […] With the corresponding double-reciprocal plot, the derived kinetic constants from the inactivation experiments were estimated.
(§2) Two-step incubation was performed to evaluate the TDI assay. […] After pre-incubation for 3 min at 37 °C in a shaking water bath, the enzymatic reaction was started upon adding NADPH (1 mM) with various pre-reaction time (0, 5, 10, 20, 30 min). For TDI on CYP3A5, NADPH (1 mM) was added to the incubation which contained CYP3A5*1/*3 HLM (0.5 mg/mL) and CYP3cide (1.2 μM) after being pre-warmed for 3 min. […] Next step, an aliquot (20 μL) of the primary pre-reaction mixture was transferred to 180 μL of the secondary incubation system which consisted of PBS (0.1 M), testosterone (200 μM) and NADPH (1 mM). The secondary reaction was incubated at 37 °C for 10 min and terminated by adding 400 μL ice-cold acetonitrile containing prednisolone as the internal standard (0.3150 μM for CYP3A5*3/*3 HLM incubation and 0.07875 μM for CYP3A5*1/*3 HLM incubation). […] The observed inactivation rate of the affected enzyme (kobs) was the negative slope of the linear regression. kinact and KI were calculated using Equation (1) by the double-reciprocal plot. I represents the concentration of the inhibitor. (1) kobs=kinact×I/[…]

[3] = intrinsic clearance in human liver microsomes; assay type: in vitro ADME; settings: In-house data, read-out: CLint,HLM
CYP3A = settings: rat liver microsomes, cited from earlier work
[4] = parameters: method as in PMID 24195812; settings: rats; oral dose of 0.024 mM/kg STA or SIA; cited from earlier work
[5] = ref supplement 2; cited from earlier work
CYP3A5 [6] = biological target: T2, CYP3A5 (Homo sapiens, UniProt P20815); experiment: Time-dependent inhibition (TDI) assay, testosterone-6β-hydroxylation, CYP3A5*1/*3 HLM with CYP3cide; assay type: biochemical
Procedure: as §1, §2

CYP3A5 [7] = biological target: T2, CYP3A5; experiment: Reversible inhibition (RI) assay on tacrolimus metabolism, CYP3A5*1/*3 HLM with CYP3cide
Procedure: (§3) The reactions were started with the addition of nicotinamide adenine dinucleotide phosphate (NADPH, 1 mM) and stopped 10 min later upon adding a double volume of ice-cold methanol. […] Reactions were terminated with the same method as the CYP3A4 group. All incubations were carried out in triplicate. […] Dixon plots were used to analyze the inhibitory type of RI assay and Ki value.

[8] = parameters: method as in https://pubchem.ncbi.nlm.nih.gov/; settings: ref https://pubchem.ncbi.nlm.nih.gov/; cited from earlier work
[9] = ref supplement 1; cited from earlier work
CYP3A4 [10] = biological target: T1, CYP3A4; experiment: Reversible inhibition (RI) assay on tacrolimus metabolism, CYP3A5*3/*3 HLM
Procedure: as §3

[11] = 2 μM SIA, pre-incubation 10 min
[12] = 2 μM SIA, pre-incubation 20 min
[13] = 2 μM SIA, pre-incubation 30 min
[14] = 4 μM SIA, pre-incubation 10 min
[15] = 4 μM SIA, pre-incubation 20 min
[16] = 4 μM SIA, pre-incubation 30 min
[17] = 8 μM SIA, pre-incubation 10 min
[18] = 8 μM SIA, pre-incubation 20 min
[19] = 8 μM SIA, pre-incubation 30 min
[20] = 16 μM SIA, pre-incubation 0 min
[21] = 16 μM SIA, pre-incubation 5 min
[22] = 16 μM SIA, pre-incubation 10 min
[23] = 16 μM SIA, pre-incubation 20 min
[24] = 16 μM SIA, pre-incubation 30 min

T1 sequence (P08684 whole entry): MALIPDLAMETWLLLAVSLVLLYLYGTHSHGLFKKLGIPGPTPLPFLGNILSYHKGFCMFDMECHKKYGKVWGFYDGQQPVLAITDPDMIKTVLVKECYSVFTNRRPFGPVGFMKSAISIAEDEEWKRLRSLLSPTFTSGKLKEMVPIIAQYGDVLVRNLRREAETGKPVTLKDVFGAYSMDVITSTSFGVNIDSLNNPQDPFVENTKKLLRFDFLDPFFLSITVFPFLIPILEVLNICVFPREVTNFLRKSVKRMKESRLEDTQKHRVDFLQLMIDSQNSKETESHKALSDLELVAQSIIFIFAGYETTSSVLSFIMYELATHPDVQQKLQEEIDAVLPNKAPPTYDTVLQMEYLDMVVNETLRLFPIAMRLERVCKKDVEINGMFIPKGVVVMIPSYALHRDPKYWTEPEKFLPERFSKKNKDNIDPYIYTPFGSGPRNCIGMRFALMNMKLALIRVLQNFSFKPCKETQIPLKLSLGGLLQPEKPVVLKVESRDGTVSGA
T2 sequence (P20815 whole entry): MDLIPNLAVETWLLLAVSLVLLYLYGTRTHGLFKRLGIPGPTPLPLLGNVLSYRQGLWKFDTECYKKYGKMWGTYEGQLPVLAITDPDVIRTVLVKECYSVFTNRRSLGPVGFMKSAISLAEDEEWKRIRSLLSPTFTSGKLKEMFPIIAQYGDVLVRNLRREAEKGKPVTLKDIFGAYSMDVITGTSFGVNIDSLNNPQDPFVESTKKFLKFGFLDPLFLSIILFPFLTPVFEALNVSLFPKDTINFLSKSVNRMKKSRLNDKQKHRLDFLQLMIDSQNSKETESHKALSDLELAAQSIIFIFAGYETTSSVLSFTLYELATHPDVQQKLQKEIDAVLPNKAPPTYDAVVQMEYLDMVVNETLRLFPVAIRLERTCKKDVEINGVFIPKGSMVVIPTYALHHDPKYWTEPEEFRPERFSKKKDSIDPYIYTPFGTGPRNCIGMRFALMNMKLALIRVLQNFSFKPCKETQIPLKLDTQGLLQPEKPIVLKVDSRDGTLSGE

COc1cc2c(c(OC)c1OC)-c1c(cc(OC)c(OC)c1OC)C[C@H](C)[C@H](C)C2 [SIA, schisandrin A]
Kp ([1]; adipose, read-out: Kp Adipose): 36.4
Kp ([1]; brain, read-out: Kp Brain): 7.4
Kp ([1]; gut, read-out: Kp Gut): 210
Kp ([1]; heart, read-out: Kp Heart): 39.5
Kp ([1]; kidney, read-out: Kp Kidney): 5.9
Kp ([1]; liver, read-out: Kp Liver): 3.9
Kp ([1]; lung, read-out: Kp Lung): 19
Kp ([1]; spleen, read-out: Kp Spleen): 7.6
TDI profile on CYP3A4 (in words) (CYP3A4 [2]): slight TDI
log of percentage of control activity, Figure 4A, Mean (CYP3A4 [2]; 2 μM SIA, pre-incubation 0 min): 4.6052
log of percentage of control activity, Figure 4A, Mean (CYP3A4 [2]; 2 μM SIA, pre-incubation 5 min): 4.5754
log of percentage of control activity, Figure 4A, Mean (CYP3A4 [2]; [11]): 4.5165
log of percentage of control activity, Figure 4A, Mean (CYP3A4 [2]; [12]): 4.4602
log of percentage of control activity, Figure 4A, Mean (CYP3A4 [2]; [13]): 4.3520
log of percentage of control activity, Figure 4A, Mean (CYP3A4 [2]; 4 μM SIA, pre-incubation 0 min): 4.6052
log of percentage of control activity, Figure 4A, Mean (CYP3A4 [2]; 4 μM SIA, pre-incubation 5 min): 4.5505
log of percentage of control activity, Figure 4A, Mean (CYP3A4 [2]; [14]): 4.4420
log of percentage of control activity, Figure 4A, Mean (CYP3A4 [2]; [15]): 4.3925
log of percentage of control activity, Figure 4A, Mean (CYP3A4 [2]; [16]): 4.2490
log of percentage of control activity, Figure 4A, Mean (CYP3A4 [2]; 8 μM SIA, pre-incubation 0 min): 4.6029
log of percentage of control activity, Figure 4A, Mean (CYP3A4 [2]; 8 μM SIA, pre-incubation 5 min): 4.5164
log of percentage of control activity, Figure 4A, Mean (CYP3A4 [2]; [17]): 4.3979
log of percentage of control activity, Figure 4A, Mean (CYP3A4 [2]; [18]): 4.2781
log of percentage of control activity, Figure 4A, Mean (CYP3A4 [2]; [19]): 4.1876
log of percentage of control activity, Figure 4A, Mean (CYP3A4 [2]; [20]): 4.6052
log of percentage of control activity, Figure 4A, Mean (CYP3A4 [2]; [21]): 4.4518
log of percentage of control activity, Figure 4A, Mean (CYP3A4 [2]; [22]): 4.3776
log of percentage of control activity, Figure 4A, Mean (CYP3A4 [2]; [23]): 4.2397
log of percentage of control activity, Figure 4A, Mean (CYP3A4 [2]; [24]): 4.0738
kinact/KI (CYP3A4 [2]; CYP3A4): 125 M⁻¹ s⁻¹
KI (CYP3A4 [2]; CYP3A4, testosterone-6β-hydroxylation): 2.54 µM
kinact (CYP3A4 [2]; human, CYP3A5*3/*3 human liver microsomes, probe testosterone (200 μM), CYP3A4, testosterone-6β-hydroxylation): 0.000317 s⁻¹
microsomal CLint [3]: 130 µL/min/mg
Ki (CYP3A; midazolam 1′-hydroxylation): 5.83 µM
Ki (CYP3A; midazolam 4-hydroxylation): 4.8 µM
increase of systemic exposure of tacrolimus [4]: 2.37 fold
fu plasma [5]: 0.0334
TDI profile on CYP3A5 (in words) (CYP3A5 [6]): slight TDI
log of percentage of control activity, Figure 4C, Mean (CYP3A5 [6]; 2 μM SIA, pre-incubation 0 min): 4.6052
log of percentage of control activity, Figure 4C, Mean (CYP3A5 [6]; 2 μM SIA, pre-incubation 5 min): 4.5539
log of percentage of control activity, Figure 4C, Mean (CYP3A5 [6]; [11]): 4.5218
log of percentage of control activity, Figure 4C, Mean (CYP3A5 [6]; [12]): 4.4427
log of percentage of control activity, Figure 4C, Mean (CYP3A5 [6]; [13]): 4.3791
log of percentage of control activity, Figure 4C, Mean (CYP3A5 [6]; 4 μM SIA, pre-incubation 0 min): 4.6052
log of percentage of control activity, Figure 4C, Mean (CYP3A5 [6]; 4 μM SIA, pre-incubation 5 min): 4.4998
log of percentage of control activity, Figure 4C, Mean (CYP3A5 [6]; [14]): 4.5031
log of percentage of control activity, Figure 4C, Mean (CYP3A5 [6]; [15]): 4.4869
log of percentage of control activity, Figure 4C, Mean (CYP3A5 [6]; [16]): 4.2859
log of percentage of control activity, Figure 4C, Mean (CYP3A5 [6]; 8 μM SIA, pre-incubation 0 min): 4.6052
log of percentage of control activity, Figure 4C, Mean (CYP3A5 [6]; 8 μM SIA, pre-incubation 5 min): 4.4632
log of percentage of control activity, Figure 4C, Mean (CYP3A5 [6]; [17]): 4.4150
log of percentage of control activity, Figure 4C, Mean (CYP3A5 [6]; [18]): 4.4028
log of percentage of control activity, Figure 4C, Mean (CYP3A5 [6]; [19]): 4.2282
log of percentage of control activity, Figure 4C, Mean (CYP3A5 [6]; [20]): 4.5539
log of percentage of control activity, Figure 4C, Mean (CYP3A5 [6]; [21]): 4.4523
log of percentage of control activity, Figure 4C, Mean (CYP3A5 [6]; [22]): 4.3701
log of percentage of control activity, Figure 4C, Mean (CYP3A5 [6]; [23]): 4.2585
log of percentage of control activity, Figure 4C, Mean (CYP3A5 [6]; [24]): 4.1607
kinact/KI (CYP3A5 [6]; CYP3A5): 113 M⁻¹ s⁻¹
KI (CYP3A5 [6]; CYP3A5, testosterone-6β-hydroxylation): 2.07 µM
kinact (CYP3A5 [6]; human, CYP3A5*1/*3 human liver microsomes with CYP3cide, probe testosterone (200 μM), with CYP3cide ([…]), CYP3A5, testosterone-6β-hydroxylation): 0.000233 s⁻¹
Ki (CYP3A5 [7]): 8.74 µM
Dixon plot data point, Figure 2D, Mean (CYP3A5 [7]; 2.4 μM SIA, 0.2 μM tacrolimus): 32.0000
Dixon plot data point, Figure 2D, Mean (CYP3A5 [7]; 2.4 μM SIA, 0.4 μM tacrolimus): 17.6167
Dixon plot data point, Figure 2D, Mean (CYP3A5 [7]; 2.4 μM SIA, 0.8 μM tacrolimus): 9.2000
Dixon plot data point, Figure 2D, Mean (CYP3A5 [7]; 2.4 μM SIA, 1.6 μM tacrolimus): 6.2790
Dixon plot data point, Figure 2D, Mean (CYP3A5 [7]; 7.2 μM SIA, 0.4 μM tacrolimus): 21.6176
Dixon plot data point, Figure 2D, Mean (CYP3A5 [7]; 7.2 μM SIA, 1.6 μM tacrolimus): 6.9243
Dixon plot data point, Figure 2D, Mean (CYP3A5 [7]; 12 μM SIA, 0.2 μM tacrolimus): 60.0000
Dixon plot data point, Figure 2D, Mean (CYP3A5 [7]; 12 μM SIA, 0.4 μM tacrolimus): 30.1990
Dixon plot data point, Figure 2D, Mean (CYP3A5 [7]; 12 μM SIA, 0.8 μM tacrolimus): 15.0500
Dixon plot data point, Figure 2D, Mean (CYP3A5 [7]; 12 μM SIA, 1.6 μM tacrolimus): 7.2381
HBD [8]: 0
PSA [8]: 55.38 Å2
Log Po:w [9]: 5.265
Dixon plot data point, Figure 2C, Mean (CYP3A4 [10]; 2.4 μM SIA, 0.2 μM tacrolimus): 20.0000
Dixon plot data point, Figure 2C, Mean (CYP3A4 [10]; 2.4 μM SIA, 0.4 μM tacrolimus): 10.0000
Dixon plot data point, Figure 2C, Mean (CYP3A4 [10]; 2.4 μM SIA, 0.8 μM tacrolimus): 3.3452
Dixon plot data point, Figure 2C, Mean (CYP3A4 [10]; 2.4 μM SIA, 1.6 μM tacrolimus): 1.4662
Dixon plot data point, Figure 2C, Mean (CYP3A4 [10]; 7.2 μM SIA, 0.4 μM tacrolimus): 10.0565
Dixon plot data point, Figure 2C, Mean (CYP3A4 [10]; 7.2 μM SIA, 1.6 μM tacrolimus): 1.7598
Dixon plot data point, Figure 2C, Mean (CYP3A4 [10]; 12 μM SIA, 0.2 μM tacrolimus): 20.3445
Dixon plot data point, Figure 2C, Mean (CYP3A4 [10]; 12 μM SIA, 0.4 μM tacrolimus): 9.8175
Dixon plot data point, Figure 2C, Mean (CYP3A4 [10]; 12 μM SIA, 0.8 μM tacrolimus): 4.5304
Dixon plot data point, Figure 2C, Mean (CYP3A4 [10]; 12 μM SIA, 1.6 μM tacrolimus): 1.6431
reversible inhibition on CYP3A4 (in words) (CYP3A4 [10]; CYP3A5*3/*3 HLM, substrate tacrolimus): little reversible inhibition
